Assay results published in ChEMBL document CHEMBL1201862, “PubChem BioAssay data set” (2004).
Calls of active or inactive are those of the source.

How the values were obtained:
[1] = Artemis endonuclease inhibitor potency, dose response, biochemical, fluorescence intensity (AID 720701); type: functional;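 note: Artemis endonuclease enzyme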
[2] = target: T1, Runt-related transcription factor 1/Core-binding factor subunit beta (Homo sapiens, UniProt Q01196+Q13951); test: inhibitors of RUNX1 Runt–CBFb-SMMHC binding, primary screen, biochemical, FRET, Cerulean-Runt, Venus-CBFb-SMMHC, uHTS (AID 1434); type: protein assay;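 note: partner is the CBFb-SMMHC leukemia fusion protein rather than wild-type CBFb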
[3] = target: T2, Protein skinhead-1 (Caenorhabditis elegans, UniProt P34707); type: functional
T2 sequence (P34707 whole entry): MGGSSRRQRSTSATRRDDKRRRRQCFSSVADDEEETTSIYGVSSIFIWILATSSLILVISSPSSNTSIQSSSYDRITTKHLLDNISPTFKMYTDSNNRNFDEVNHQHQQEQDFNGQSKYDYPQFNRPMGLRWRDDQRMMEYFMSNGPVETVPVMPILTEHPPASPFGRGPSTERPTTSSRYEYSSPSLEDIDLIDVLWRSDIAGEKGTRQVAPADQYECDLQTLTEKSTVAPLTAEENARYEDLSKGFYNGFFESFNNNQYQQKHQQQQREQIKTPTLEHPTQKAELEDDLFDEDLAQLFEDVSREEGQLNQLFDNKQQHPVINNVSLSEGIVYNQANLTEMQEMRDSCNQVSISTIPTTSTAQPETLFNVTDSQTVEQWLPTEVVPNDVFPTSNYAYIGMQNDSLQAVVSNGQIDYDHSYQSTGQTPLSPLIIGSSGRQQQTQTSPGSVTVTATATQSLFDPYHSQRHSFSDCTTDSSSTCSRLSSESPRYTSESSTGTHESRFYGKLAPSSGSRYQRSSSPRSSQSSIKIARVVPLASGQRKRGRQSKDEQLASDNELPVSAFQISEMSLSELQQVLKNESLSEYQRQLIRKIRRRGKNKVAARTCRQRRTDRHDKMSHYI

[4] = target: T1, Runt-related transcription factor 1/Core-binding factor subunit beta; test: inhibitors of RUNX1 Runt–CBFb-SMMHC binding, biochemical, TR-FRET (AID 1438); type: protein assay
[5] = HeLa cell cytotoxicity, dose response, cytotoxicity control for MgcRacGAP inhibitor project (AID 624300); type: functional
[6] = human group III sPLA2 inhibitors, dose response, biochemical, QFRET, IC50 (AID 743457);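 note: green fluorescence rise as the enzyme cleaves BODIPY PC-A2 in liposomes; potency for inhibition of the enzyme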
[7] = target: T3, Fatty acid synthase (Homo sapiens, UniProt P49327); test: FAS thioesterase domain inhibitors, dose response, biochemical, endpoint fluorescence intensity, uHTS hits (AID 624327); type: functional;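 note: fluorescence from hydrolysis of an O-methyl fluorescein acyl ester substrate by the enzyme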
T3 sequence (P49327 whole entry, the tested form may be a part): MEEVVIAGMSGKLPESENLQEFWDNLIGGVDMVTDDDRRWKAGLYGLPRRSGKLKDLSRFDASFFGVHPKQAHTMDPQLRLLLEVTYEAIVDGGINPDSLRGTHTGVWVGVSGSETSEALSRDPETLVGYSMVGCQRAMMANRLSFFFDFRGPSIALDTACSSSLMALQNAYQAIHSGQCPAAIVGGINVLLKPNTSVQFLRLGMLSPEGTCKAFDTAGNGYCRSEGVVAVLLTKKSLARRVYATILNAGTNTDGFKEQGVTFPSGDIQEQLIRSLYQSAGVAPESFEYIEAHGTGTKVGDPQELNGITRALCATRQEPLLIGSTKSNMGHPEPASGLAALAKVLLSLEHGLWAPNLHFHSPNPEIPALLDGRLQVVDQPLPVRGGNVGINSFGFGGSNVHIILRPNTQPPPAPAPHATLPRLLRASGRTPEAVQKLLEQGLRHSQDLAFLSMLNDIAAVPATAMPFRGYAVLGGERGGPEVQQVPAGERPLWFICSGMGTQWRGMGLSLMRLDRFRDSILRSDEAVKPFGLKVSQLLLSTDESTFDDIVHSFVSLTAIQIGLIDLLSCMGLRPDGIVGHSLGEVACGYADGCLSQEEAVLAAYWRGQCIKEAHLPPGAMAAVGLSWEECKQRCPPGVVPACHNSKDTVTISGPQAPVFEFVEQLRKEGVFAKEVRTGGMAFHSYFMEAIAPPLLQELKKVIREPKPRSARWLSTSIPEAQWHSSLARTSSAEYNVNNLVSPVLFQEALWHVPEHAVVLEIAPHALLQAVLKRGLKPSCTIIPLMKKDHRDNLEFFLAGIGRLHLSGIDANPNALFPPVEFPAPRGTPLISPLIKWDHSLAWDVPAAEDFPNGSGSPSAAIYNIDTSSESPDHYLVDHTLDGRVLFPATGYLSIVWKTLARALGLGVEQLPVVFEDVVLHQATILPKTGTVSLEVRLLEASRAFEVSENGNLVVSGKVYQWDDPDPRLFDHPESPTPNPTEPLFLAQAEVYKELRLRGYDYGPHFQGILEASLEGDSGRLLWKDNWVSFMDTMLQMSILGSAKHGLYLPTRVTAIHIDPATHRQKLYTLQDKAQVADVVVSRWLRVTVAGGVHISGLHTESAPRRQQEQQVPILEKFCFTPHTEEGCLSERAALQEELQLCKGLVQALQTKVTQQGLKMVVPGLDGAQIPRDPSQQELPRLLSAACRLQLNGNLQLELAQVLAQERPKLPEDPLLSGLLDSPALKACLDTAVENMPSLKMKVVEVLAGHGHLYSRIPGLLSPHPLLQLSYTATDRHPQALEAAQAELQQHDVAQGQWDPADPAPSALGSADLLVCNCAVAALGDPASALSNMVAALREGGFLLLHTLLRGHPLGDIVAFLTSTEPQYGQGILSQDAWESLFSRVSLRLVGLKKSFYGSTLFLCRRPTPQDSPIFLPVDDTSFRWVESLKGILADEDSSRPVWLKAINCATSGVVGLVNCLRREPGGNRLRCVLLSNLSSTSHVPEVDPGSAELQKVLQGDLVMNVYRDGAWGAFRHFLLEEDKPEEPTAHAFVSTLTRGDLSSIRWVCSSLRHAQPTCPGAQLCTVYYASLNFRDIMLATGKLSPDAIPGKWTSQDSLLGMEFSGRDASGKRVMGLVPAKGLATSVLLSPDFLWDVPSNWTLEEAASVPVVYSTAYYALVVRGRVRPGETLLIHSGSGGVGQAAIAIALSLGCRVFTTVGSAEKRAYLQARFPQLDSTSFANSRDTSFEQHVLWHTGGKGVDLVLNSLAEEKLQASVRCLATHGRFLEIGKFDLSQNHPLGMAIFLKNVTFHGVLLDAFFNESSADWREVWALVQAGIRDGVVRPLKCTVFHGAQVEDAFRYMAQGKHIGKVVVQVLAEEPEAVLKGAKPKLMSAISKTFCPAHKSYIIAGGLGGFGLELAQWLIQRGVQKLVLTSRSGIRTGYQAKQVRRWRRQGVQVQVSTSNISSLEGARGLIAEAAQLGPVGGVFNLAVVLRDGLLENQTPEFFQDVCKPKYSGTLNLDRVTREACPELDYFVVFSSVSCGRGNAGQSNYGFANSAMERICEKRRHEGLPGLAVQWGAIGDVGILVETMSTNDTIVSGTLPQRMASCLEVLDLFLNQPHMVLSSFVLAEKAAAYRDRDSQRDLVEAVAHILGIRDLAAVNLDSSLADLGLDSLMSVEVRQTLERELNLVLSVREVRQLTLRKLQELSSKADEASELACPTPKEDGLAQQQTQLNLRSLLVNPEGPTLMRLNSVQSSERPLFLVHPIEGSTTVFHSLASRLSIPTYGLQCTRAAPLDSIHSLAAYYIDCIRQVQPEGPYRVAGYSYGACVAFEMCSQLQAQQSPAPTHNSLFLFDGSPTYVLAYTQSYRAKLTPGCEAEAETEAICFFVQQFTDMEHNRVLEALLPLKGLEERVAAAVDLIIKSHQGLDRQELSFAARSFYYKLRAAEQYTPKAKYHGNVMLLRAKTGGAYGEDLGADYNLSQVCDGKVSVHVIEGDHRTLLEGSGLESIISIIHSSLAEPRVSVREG

[8] = target: T3, Fatty acid synthase; test: FAS thioesterase domain inhibitors, dose response, biochemical, kinetic fluorescence intensity (AID 624326); type: functional;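 note: rate of fluorescence rise from hydrolysis of a fluorogenic O-methyl fluorescein ester substrate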
[9] = target: Tyrosyl-DNA phosphodiesterase 2 (Homo sapiens, UniProt O95551); test: human TDP2 enzyme inhibitors, dose response, biochemical, epi absorbance, IC50 (AID 743297)
[10] = target: Nonstructural protein 1 (Influenza A virus, UniProt Q194T2); type: functional, Influenza A virus (A/California/07/2009(H1N1))
[11] = target: T4, Rac GTPase-activating protein 1 (Homo sapiens, UniProt Q9H0H5); test: MgcRacGAP GTPase-activating activity inhibitors, confirmation, biochemical, ADP Hunter fluorescence, primary and confirmatory (AID 624330); type: functional
T4 sequence (Q9H0H5 whole entry): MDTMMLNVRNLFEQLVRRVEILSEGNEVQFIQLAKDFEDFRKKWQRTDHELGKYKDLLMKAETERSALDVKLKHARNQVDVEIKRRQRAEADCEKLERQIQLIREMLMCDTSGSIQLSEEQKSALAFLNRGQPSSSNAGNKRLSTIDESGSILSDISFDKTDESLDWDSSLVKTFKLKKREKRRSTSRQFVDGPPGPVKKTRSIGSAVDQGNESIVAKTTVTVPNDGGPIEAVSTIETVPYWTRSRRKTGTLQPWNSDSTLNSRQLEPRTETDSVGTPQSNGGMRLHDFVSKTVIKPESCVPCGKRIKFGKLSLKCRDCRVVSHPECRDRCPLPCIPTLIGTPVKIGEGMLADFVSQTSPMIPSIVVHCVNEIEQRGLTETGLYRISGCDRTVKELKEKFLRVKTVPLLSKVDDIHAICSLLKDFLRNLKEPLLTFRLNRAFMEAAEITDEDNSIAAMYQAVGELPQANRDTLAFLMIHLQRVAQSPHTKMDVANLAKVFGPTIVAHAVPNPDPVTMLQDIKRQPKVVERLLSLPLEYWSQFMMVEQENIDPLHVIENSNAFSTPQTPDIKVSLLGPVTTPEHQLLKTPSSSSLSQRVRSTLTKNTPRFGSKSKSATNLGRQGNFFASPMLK

[12] = IGROV1 ovarian cancer cell cytotoxicity, dose response, PAX8 inhibitor project, plate reader, dry powder samples (AID 743043); type: functional, cell-based; settings: IGROV-1
[13] = cytotoxicity in OVCAR8 ovarian cancer cells, dose response, PAX8 project, cell-based, plate reader, dry powder samples (AID 743197); type: functional; settings: OVCAR-8
[14] = NIH:OVCAR-3 ovarian cancer cell cytotoxicity, dose response, PAX8 inhibitor project, plate reader, dry powder samples (AID 743044); type: functional, cell-based
[15] = target: Paired box protein Pax-8 (Homo sapiens, UniProt Q06710); test: inhibitors of PAX8-driven TPO luciferase reporter, dose response, RMG-I cells, cherry-pick (AID 687027); type: functional, cell-based;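 note: luciferase reporter driven by Pax8 target thyroperoxidase promoter measured by SteadyGlo luminescence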
Chain of Paired box protein Pax-8 (Q06710 whole entry): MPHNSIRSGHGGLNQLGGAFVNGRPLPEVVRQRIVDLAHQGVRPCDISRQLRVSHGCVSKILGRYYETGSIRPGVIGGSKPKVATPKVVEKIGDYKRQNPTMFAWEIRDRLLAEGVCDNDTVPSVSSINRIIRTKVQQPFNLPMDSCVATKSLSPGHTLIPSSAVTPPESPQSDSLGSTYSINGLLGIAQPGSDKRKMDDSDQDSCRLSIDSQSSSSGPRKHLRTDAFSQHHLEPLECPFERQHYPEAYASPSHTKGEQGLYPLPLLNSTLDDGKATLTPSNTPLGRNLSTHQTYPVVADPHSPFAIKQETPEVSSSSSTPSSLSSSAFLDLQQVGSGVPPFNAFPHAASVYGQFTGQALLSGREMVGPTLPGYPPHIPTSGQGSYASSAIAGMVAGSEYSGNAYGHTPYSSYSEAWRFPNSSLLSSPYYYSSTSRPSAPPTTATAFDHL

[16] = ADAM10 inhibitors, peptide cleavage, dose response, biochemical, QFRET (AID 743254);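 note: ADAM10 enzyme with the DM2 quenched FRET peptide as substrate; EDANS fluorescence gain as the protease cuts the substrate; inhibitor potency against ADAM10 proteolytic activity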
[17] = target: Disintegrin and metalloproteinase domain-containing protein 17 (Homo sapiens, UniProt P78536); test: ADAM17 protease inhibitors, dose response, counter-screen for ADAM10 exosite inhibitor project, biochemical, quenched FRET substrate (AID 743253)
Chain of Disintegrin and metalloproteinase domain-containing protein 17 (P78536 whole entry, the tested form may be a part): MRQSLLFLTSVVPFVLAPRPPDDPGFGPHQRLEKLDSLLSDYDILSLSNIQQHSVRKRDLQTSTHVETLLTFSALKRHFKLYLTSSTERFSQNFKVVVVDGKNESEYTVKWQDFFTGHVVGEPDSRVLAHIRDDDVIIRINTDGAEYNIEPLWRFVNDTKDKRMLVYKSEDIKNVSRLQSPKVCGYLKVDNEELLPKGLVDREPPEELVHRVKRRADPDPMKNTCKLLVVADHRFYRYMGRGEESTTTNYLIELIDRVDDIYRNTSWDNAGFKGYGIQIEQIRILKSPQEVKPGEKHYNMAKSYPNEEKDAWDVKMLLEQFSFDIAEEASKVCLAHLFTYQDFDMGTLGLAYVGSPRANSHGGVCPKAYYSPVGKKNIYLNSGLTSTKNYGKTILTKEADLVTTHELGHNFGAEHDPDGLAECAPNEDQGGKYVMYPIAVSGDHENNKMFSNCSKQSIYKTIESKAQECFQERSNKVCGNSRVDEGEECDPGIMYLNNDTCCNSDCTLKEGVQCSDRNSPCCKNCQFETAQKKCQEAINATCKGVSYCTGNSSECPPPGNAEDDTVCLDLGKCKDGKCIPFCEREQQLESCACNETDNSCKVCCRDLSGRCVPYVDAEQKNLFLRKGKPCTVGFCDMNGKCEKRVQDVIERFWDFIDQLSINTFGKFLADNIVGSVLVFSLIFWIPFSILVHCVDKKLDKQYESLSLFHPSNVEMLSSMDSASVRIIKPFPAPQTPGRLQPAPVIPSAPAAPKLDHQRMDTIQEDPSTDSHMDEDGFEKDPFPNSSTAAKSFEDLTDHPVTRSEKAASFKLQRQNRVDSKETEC

[18] = Luminescence Cell-Based Dose Retest to Confirm Inhibitors of Cancer Stem Cells. [Related pubchem assays (depositor defined):AID2717, AID2721]; type: functional; settings: Homo sapiens
[19] = HepG2 cell cytotoxicity, dose response, cytotoxicity control for Shn3 inhibitor project, CellTiter-Glo, cherry-picked (AID 624134); type: functional, cell-based
[20] = Shn3 3'UTR reporter inhibitors, dose response, cell-based, Clone20 osteoblasts, firefly luciferase, cherry-picked (AID 624132); type: functional;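 note: firefly luciferase luminescence from reporter carrying the Shn3 3'UTR in osteoblasts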
[21] = P. falciparum late gametocyte killing, dose response, luminescence (AID 1117278); type: functional, cell-based;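 note: gametocytes exposed to compound for 24 hours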
[22] = Jurkat T cell cytotoxicity, dose response, cytotoxicity control for P. falciparum gametocyte viability project, luminescence (AID 1117277); type: functional, cell-based;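 note: potency reflects loss of cellular ATP meaning fewer viable cells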
[23] = target: E3 ubiquitin-protein ligase Mdm2 (Homo sapiens, UniProt Q00987); test: enhancers of MDM2-luciferase reporter signal, concentration-effect titration, project on inhibitors of MDM2 ubiquitin ligase, cellular assay, luminescent readout, 384-well plate format (AID 1394); type: functional;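 note: MDM2 E3 inhibitors raise luminescence so EC50 is for signal enhancement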
[24] = cells; type: functional, cell-based
[25] = cells; type: functional, cell-based; remark: listed apart in the source
[26] = target: Mitogen-activated protein kinase 10 (Homo sapiens, UniProt P53779); test: Dose response biochemical screening assay for inhibitors of c-Jun N-Terminal Kinase 3 (JNK3). [Related pubchem assays: 746 ]
Chain of Mitogen-activated protein kinase 10 (P53779 whole entry): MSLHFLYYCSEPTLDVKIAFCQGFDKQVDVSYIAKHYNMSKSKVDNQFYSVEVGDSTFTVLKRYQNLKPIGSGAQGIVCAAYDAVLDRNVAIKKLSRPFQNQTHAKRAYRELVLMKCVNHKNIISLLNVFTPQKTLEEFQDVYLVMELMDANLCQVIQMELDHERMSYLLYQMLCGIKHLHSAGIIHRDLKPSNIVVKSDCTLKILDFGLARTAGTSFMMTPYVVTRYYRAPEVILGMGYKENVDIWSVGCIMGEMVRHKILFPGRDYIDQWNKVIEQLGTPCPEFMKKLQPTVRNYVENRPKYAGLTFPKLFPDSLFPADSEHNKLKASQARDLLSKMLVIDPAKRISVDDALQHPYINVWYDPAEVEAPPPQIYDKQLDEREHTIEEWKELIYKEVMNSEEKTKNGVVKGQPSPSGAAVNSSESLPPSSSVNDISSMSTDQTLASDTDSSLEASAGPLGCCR

[27] = microbe, parasite or virus in culture; type: functional; settings: Mycobacterium tuberculosis
[28] = target: Fructose-bisphosphate aldolase (Mycobacterium tuberculosis, UniProt P9WQA3); test: Fluorescence-based biochemical high throughput dose response assay for inhibitors of the fructose-bisphosphate aldolase (FBA) of M. tuberculosis.; type: functional
Chain of Fructose-bisphosphate aldolase (P9WQA3 whole entry): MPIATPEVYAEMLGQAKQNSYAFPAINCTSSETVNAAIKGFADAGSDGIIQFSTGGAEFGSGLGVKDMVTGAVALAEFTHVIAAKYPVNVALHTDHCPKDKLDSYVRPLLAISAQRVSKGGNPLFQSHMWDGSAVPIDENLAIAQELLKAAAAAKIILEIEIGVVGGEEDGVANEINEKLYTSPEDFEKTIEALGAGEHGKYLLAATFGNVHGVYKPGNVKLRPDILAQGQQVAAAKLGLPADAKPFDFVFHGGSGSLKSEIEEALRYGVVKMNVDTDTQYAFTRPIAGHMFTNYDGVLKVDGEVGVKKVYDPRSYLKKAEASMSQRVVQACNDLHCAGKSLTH

[29] = target: T5, Tyrosine-protein phosphatase non-receptor type 7 (Homo sapiens, UniProt P35236); test: inhibitors of human HePTP phosphatase, […], biochemical, absorbance, leukemia target (AID 521); type: functional
T5 sequence (P35236 whole entry): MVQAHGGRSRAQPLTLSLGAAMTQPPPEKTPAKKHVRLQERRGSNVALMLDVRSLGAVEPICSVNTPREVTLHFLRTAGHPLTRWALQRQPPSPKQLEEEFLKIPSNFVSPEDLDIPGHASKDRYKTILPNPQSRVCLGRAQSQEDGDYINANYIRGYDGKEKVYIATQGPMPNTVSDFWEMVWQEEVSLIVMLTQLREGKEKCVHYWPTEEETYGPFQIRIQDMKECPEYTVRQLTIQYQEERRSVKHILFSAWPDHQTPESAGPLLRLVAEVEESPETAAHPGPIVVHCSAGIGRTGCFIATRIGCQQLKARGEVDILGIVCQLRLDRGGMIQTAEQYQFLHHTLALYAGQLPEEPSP

[30] = target: Sphingosine 1-phosphate receptor 2 (Homo sapiens, UniProt O95136); test: Dose Response Cell Based Assay for Agonists of the S1P2 Receptor. [Related pubchem assays: 729, 736, 843 ]; type: functional
Chain of Sphingosine 1-phosphate receptor 2 (O95136 whole entry): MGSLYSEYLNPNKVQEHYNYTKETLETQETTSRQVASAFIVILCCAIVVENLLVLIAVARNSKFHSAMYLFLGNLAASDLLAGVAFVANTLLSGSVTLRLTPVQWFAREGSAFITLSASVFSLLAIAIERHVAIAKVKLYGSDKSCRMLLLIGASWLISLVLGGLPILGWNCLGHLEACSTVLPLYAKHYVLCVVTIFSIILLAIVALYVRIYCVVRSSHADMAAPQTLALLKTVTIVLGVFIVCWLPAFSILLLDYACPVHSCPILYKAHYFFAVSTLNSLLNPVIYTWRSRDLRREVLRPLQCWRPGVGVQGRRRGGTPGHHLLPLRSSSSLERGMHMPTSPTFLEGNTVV

[31] = test system: H9c2; test: cells; type: functional, cell-based; settings: Rattus norvegicus, H9c2, Myocardium;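 note: confirmatory concentration-response retest of ultra-high-throughput screening hits for modulation of myocardial damage; cell death induced by hydrogen peroxide oxidative stress; compound pretreatment for 60 min then peroxide exposure for 2 h; potency is for protecting the cells against peroxide damage rather than for killing them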

Q: With `N=c1c(C(=O)NCc2ccccc2)cc2c(=O)n3ccccc3nc2n1Cc1ccco1` as the molecule, how does the IC50 [1] read?
A: > 20 µM (inactive)

Q: And the IC50 [2]?
A: 2.34 µM (active)

Q: And the IC50 [3]?
A: > 100 µM (inactive)

Q: What about the IC50 [4] of the same molecule?
A: 36.6 µM (active)

Q: Which CC50 [5] does the source give for `CCOC(=O)c1cc2c(=Cc3ccc(N(C)C)cc3)c3ccccc3n2[n+]1C` here?
A: 100 µM (active)

Q: And the IC50 [6]?
A: 36.1 µM (inactive)

Q: What about the IC50 [7] of the same molecule?
A: 12.9 µM (active)

Q: And the IC50 [8]?
A: 8.42 µM (active)

Q: What about the IC50 [9] of the same molecule?
A: > 128 µM (inactive)

Q: And the IC50 [10]?
A: 12 µM (active)

Q: What about the IC50 [11] of the same molecule?
A: 42.5 µM (active)

Q: For `COc1ccc(S(=O)(=O)Nc2ccc3c(c2)C(=O)N([C@H](C)CO)C[C@@H](C)[C@H](CN(C)S(=O)(=O)c2ccc(Cl)cc2)OCCCC[C@H](C)O3)cc1`, which AC50 [12] is on record?
A: 34.6 µM (active)

Q: What about the AC50 [13] of the same molecule?
A: > 70 µM (inactive)

Q: What about the AC50 [14] of the same molecule?
A: 33.5 µM (active)

Q: And the AC50 [15]?
A: 3.99 µM (active)

Q: What does the source list for `C[C@@H]1CN([C@@H](C)CO)C(=O)c2cc(NC(=O)Nc3ccc(F)cc3)ccc2O[C@@H]1CN(C)Cc1ccc(Oc2ccccc2)cc1`?
A: IC50 [16]: > 2.58 µM (active); IC50 [17]: > 69.5 µM (inactive); AC50 [18]: 2.95 µM (active); AC50 [19]: 18.7 µM (active); AC50 [20]: 9.38 µM (active)

Q: With `C[C@H]1CCCCO[C@@H](CN(C)Cc2ccccc2)[C@@H](C)CN([C@@H](C)CO)C(=O)c2cc(NC(=O)Nc3ccc(C(F)(F)F)cc3)ccc2O1` as the molecule, how does the AC50 [12] read?
A: 48.1 µM (active)

Q: What about the AC50 [13] of the same molecule?
A: 42 µM (active)

Q: And the AC50 [14]?
A: 60.4 µM (active)

Q: What about the AC50 [15] of the same molecule?
A: 11.6 µM (active)

Q: For `CCOc1ccc(-n2c(SCC(=O)Nc3ccc(S(=O)(=O)Nc4nccs4)cc3)nnc2-c2ccc(C(C)(C)C)cc2)cc1`, which IC50 [16] is on record?
A: 9.71 µM (active)

Q: What about the IC50 [17] of the same molecule?
A: > 69.5 µM (inactive)

Q: What does the source list for `Cc1ccc(CNC(=O)C2CCN(S(=O)(=O)N3CCCCC3)CC2)cc1`?
A: IC50 [21]: > 109 µM (inactive); IC50 [22]: > 83.4 µM (inactive)

Q: For `O=C1CN(c2cc(Cl)cc(Cl)c2)C(=O)CN1/N=C/c1cccnc1`, which EC50 [23] is on record?
A: 0.01 µM (not active)

Q: For `CCOC(=O)C1(C)NC(c2ccc(OC)cc2OC)C2C(=O)N(CC)C(=O)C21` (stereo not given), which EC50 [24] is on record?
A: > 350 µM (not active)

Q: And the IC50 [21]?
A: > 109 µM (inactive)

Q: What about the EC50 [25] of the same molecule?
A: > 350 µM (not active)

Q: And the IC50 [22]?
A: > 83.3 µM (inactive)

Q: With `COc1cc(NC(=O)c2ccc(COc3ccccc3Br)o2)cc(OC)c1OC` as the molecule, how does the IC50 [26] read?
A: 33 µM (not active)

Q: And the CC50 [27]?
A: > 40 µM (active)

Q: Which IC50 [28] does the source give for `O=C(Nc1nnc(-c2ccncc2)s1)C1CCCO1` (stereo not given) here?
A: 1.09 µM (active)

Q: With `CCCCNC(=O)c1cc(-c2ccc(OC)c(OC)c2)on1` as the molecule, how does the IC50 [29] read?
A: > 100 µM (not active)

Q: Which EC50 [30] does the source give for `COc1cccc(CNC(=O)CN(c2cc(C)cc(C)c2)S(=O)(=O)c2c(C)noc2C)c1` here?
A: > 50 µM (not active)

Q: Which EC50 [23] does the source give for `COc1ccc(OCC(=O)N/N=C(\C)CC(=O)Nc2cccc([N+](=O)[O-])c2)cc1` here?
A: 15.7 µM (not active)

Q: With `CN1CCN(C(=O)C2Cc3c(-c4ccc5c(c4)OCO5)ccnc3O2)CC1` (stereo not given) as the molecule, how does the IC50 [28] read?
A: 1.73 µM (active)

Q: For `CCCCCCn1cnc2c(c1=O)c1nc3ccccc3nc1n2/N=C/c1ccco1`, which IC50 [1] is on record?
A: > 20 µM (inactive)

Q: And the IC50 [31]?
A: 19.1 µM (active)

Q: With `COc1ccc(NC(=O)CCCCn2c(=O)[nH]c3ccccc3c2=O)cc1` as the molecule, how does the IC50 [26] read?
A: 55.1 µM (not active)

Q: Which EC50 [30] does the source give for `O=S(=O)(Cc1ccc(Cl)cc1)NCC1CCCO1` (stereo not given) here?
A: > 50 µM (not active)

Q: Which IC50 [29] does the source give for `CCN(CC)c1ccc(C(=O)OCC(=O)N2CCN(c3ccccc3)CC2)cc1` here?
A: > 100 µM (not active)
